Results on 2 molecules are retold here after paper PMC4287973, “Tumor cell-specific inhibition of MYC function using small molecule inhibitors of the HUWE1 ubiquitin ligase” (EMBO Molecular Medicine, 2014).

What is called IC50 is the concentration at which inhibition is half-maximal.

One assay deals with Ls174T cells. The assay can be described thus: Colony formation assay of Ls174T cells. It is filed as cell-based. To be noted: Homo sapiens, 120 h, stained after 5 days, read-out: estimated IC50 colony formation. The method, then:
Partial shRNA-mediated depletion of HUWE1 led to a moderate, but highly significant reduction in IC50 value for growth inhibition by BI8622, arguing that growth inhibition is an on-target effect of the inhibitor (Supplementary Fig S6). […] Incubation with either compound retarded passage of Ls174T cells through all phases of the cell cycle, with the effect being strongest for G1. In contrast to colon carcinoma cells, HUWE1 is not required for proliferation of embryonic stem (ES) cells and deletion of HUWE1 instead delays the decrease of N-MYC levels that occurs upon removal of leukemia inhibitory factor (LIF) from the medium (Zhao et al, [2008]). […]
Figure 4 Effect of HUWE1 inhibition on growth and gene expression in epithelial and embryonic stem cells • Colony formation assays documenting growth of Ls174T cells in the presence of the indicated concentrations of HUWE1 inhibitors. […] A quantitation of N-MYC protein levels relative to Vinculin is shown below the blot (n = 3). • RQ–PCR assays documenting expression of MYC target gene expression in murine ES cells (F) and in crypt cultures of normal intestinal epithelial cells (G) upon inhibition of HUWE1. […]
HCT116, HEK293T, HeLa, HT29, ES, Phoenix, and U2OS cells were cultivated in DMEM (Sigma). […] Quantification of crystal violet staining was performed by extracting dye with 10% acetic acid and measuring absorbance at 590 nm. […]

Another assay has as its target T1, HECW2 (Homo sapiens, UniProt Q9P2P5).
T1 construct: HECT-domains of multiple ligases auto-ubiquitinate in in vitro assays containing both UBA1 and UbcH5b
The assay can be described thus: in vitro HECT-domain auto-ubiquitination assay, HECW2. Format: biochemical.

A further assay concerns the target T2, HECT-domain of HUWE1 (Homo sapiens, UniProt Q7Z6Z7).
T2 construct: 30 ng biotinylated His-HUWE1 (C-terminal ∼350 amino acids = HECT-domain); His; biotin (biotinylated)
T2 sequence (Q7Z6Z7 4038-4374 limits assumed): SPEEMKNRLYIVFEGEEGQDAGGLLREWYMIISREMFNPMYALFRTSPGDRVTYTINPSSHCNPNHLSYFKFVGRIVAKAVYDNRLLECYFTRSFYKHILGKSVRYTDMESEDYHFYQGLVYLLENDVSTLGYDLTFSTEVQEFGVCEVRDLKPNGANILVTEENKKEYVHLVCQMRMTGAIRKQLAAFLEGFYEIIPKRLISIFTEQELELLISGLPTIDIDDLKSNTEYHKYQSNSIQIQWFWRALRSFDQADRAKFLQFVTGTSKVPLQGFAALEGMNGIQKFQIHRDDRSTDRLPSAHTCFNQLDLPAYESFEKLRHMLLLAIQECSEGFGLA
The assay can be described thus: HUWE1 auto-ubiquitination assay (DELFIA format). It is filed as biochemical. The following applies: UBA1, UbcH5b, read-out: IC50 HUWE1 (in vitro auto-ubiquitination). The procedure: To identify potential inhibitors of HUWE1, we configured an in vitro assay of HUWE1 activity for high-throughput screening of small molecules, exploiting the fact that the HECT-domain of HUWE1 auto-ubiquitinates (Pandya et al, [2010]). Briefly, the HECT-domain of HUWE1 was biotin-tagged, attached to streptavidin-coated 96-well plates, and incubated with UBA1, UbcH5b, a ubiquitin-conjugating enzyme that supports HUWE1 activity in vitro (Adhikary et al, [2005]), ATP, and MYC-tagged ubiquitin. Auto-ubiquitination was detected using a europium-labeled MYC antibody and appropriate detection reagents (Fig3A). […] After hit confirmation in repeat experiments, we identified inhibitors of UBA1 or UbcH5b by a thioester assay that measures the covalent binding of UbcH5b to ubiquitin in the presence of UBA1: Compounds active in this assay were eliminated. Furthermore, dose responses were determined in both HUWE1 and NEDD4 auto-ubiquitination assays, and compounds inhibiting NEDD4 auto-ubiquitination were eliminated (Fig3B and unpublished observations). […]
A DELFIA format assay was used to measure the covalent association of ubiquitin with HUWE1 (auto-ubiquitination). […] Europium fluorescence was measured with 50 μl DELFIA enhancement solution (Perkin Elmer) in a Wallac Victor fluorescence plate reader (Perkin Elmer).

T1 sequence (Q9P2P5 1237-1572 limits assumed, species assumed): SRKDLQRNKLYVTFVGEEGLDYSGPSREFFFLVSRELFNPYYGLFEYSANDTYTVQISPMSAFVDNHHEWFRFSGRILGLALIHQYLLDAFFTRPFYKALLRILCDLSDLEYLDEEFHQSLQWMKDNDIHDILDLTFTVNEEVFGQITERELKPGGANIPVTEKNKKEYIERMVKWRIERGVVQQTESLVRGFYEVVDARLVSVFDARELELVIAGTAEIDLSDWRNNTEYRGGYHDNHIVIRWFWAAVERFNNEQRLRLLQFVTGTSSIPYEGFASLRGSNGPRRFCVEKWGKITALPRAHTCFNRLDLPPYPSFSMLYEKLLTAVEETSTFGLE

Regarding `Cc1c(C(=O)Nc2ccc(CN)cc2)ncnc1N1CCC(C#N)(c2ccccc2)CC1` [BI8622], the IC50 in the assay on Ls174T cells is 8.4 µM; on HECW2, over 50 µM; on HECT-domain of HUWE1, 3.1 µM.
Turning to `NCc1cccc(CNc2ncnc3c(N4CCN(Cc5ccccc5)CC4)ncnc23)c1` [BI8626], the figures for the 50% inhibitory concentration (IC50) in the assay on Ls174T cells, against HECW2 and at HECT-domain of HUWE1 were 0.7 µM, over 50 µM and 0.9 µM, respectively.
